Assay results: US11446346B2, “Gastroretentive sustained release formulations of Bergenia ciliata” (COUNCIL OF SCIENTIFIC & INDUSTRIAL RESEARCH, priority 2017, dated 2022)
Like-named read-outs stand apart in the source and are kept apart here.

Key:
[1] = in vivo; design: species or system SD rats; details: rat
Description: The study was performed in male SD rats. To determine oral bioavailability of bergenin, the bergenin was administered at 5 mg/kg by IV route and at 50 mg/kg by oral route. For comparative oral pharmacokinetic study of plain extract (IIIM-160-A002) and GRSR formulation (filled in 9el capsules), the dose equivalent to 6.2 mg/kg of bergenin was administered in SD rats in both these groups. Blood samples were collected (n=3/time point) at 0.083 (IV only), 0.25, 0.5, 1, 2, 4, 8 and 24 h, post-dose. At each time point about 200 μL of blood was collected by jugular vein into a labeled microfuge tube containing 200 mM K2EDTA solution (20 μL per mL of blood) and equivalent volume of heparinized saline was replaced following sample collection. The blood samples were processed to obtain the plasma samples within 30 min of scheduled sampling time. All plasma samples were stored below −60° C. until bioanalysis. The plasma samples were analyzed for bergenin content using a fit-for purpose LC-MS/MS method with a lower limit of quantification (LLOQ) of 9.95 ng/mL. The pharmacokinetic parameters of bergenin were calculated using the non-compartmental analysis tool of validated Phoenix® WinNonlin® software (version 6.3).

[2] = system: TNF-α; test: In-vitro cytokine inhibition in LPS-treated THP-1 cells (ELISA), TNF-α; type: cell-based, human; details: LPS 1 μg/ml, 24 h, sample 12.5 μg/mL
Description: (§1) For the in vitro analysis of pro-inflammatory cytokines (IL-6 and TNF-α), human leukemia THP-1 cells were seeded in a 24-well plate at a density of 4×10^5 cells/ml of RPMI medium per well. THP-1 cells were then treated with phorbol 12-myristate 13-acetate (20 ng/ml) for differentiation into macrophages for 18 h followed by a rest period of 48 h. Cells were further co-treated with test samples and 1 μg/ml of lipopolysaccharide (LPS) in a serum-free medium. Culture supernatant was harvested after 24 h for analysis of different cytokines by using OptEIA ELISA Kits from BD Biosciences. Total protein content for all the samples was calculated by using Bradford reagent from Bio-Rad Laboratories. All the samples were normalized by dividing cytokine concentration with total quantity of protein. Bergenin was reported earlier as an inhibitor of TNF-alpha and IL-6 and was therefore was used as a positive control in this assay.

[3] = system: IL-6; test: In-vitro cytokine inhibition in LPS-treated THP-1 cells (ELISA), IL-6; type: cell-based, human; details: LPS 1 μg/ml, 24 h, sample 12.5 μg/mL
Description: as §1

[4] = pH dependent stability of bergenin (HPLC, 24 h); type: physicochemical; details: at pH 7.4 and above
Description: The stability study was performed in pH 1.2 buffer, pH 4.0 buffer, phosphate buffer pH 6.8, phosphate buffered saline pH 7.4, SGF (pH 1.2), SIF (pH 6.8) and plasma. The % of bergenin hydrolyzed after 24 h was determined by HPLC analysis. The HPLC analysis was carried out using the method as described in example 2.

[5] = cited from earlier work
[6] = rats; cited from earlier work

COc1c(O)cc2c(c1O)[C@@H]1O[C@H](CO)[C@@H](O)[C@H](O)[C@H]1OC2=O [Bergenin, bergenin]
bioavailability ([1]; male, SD): 3% | AUC(0-t) ([1]; male, SD, iv, 5 mg/kg): 874 ng·h/mL | clearance ([1]; male, SD, iv, 5 mg/kg): 95.5 mL/min/kg | half-life ([1]; male, SD, iv, 5 mg/kg): 0.318 h | volume of distribution relative to normal total body water content (0.7 L/kg in rats) ([1]; male, SD, iv, 5 mg/kg): ~1.50 fold | AUC(0-t) ([1]; male, SD, po, 50 mg/kg): 269 ng·h/mL | Cmax ([1]; male, SD, po, 50 mg/kg): 170 ng/mL | half-life ([1]; male, SD, po, 50 mg/kg): 1.74 h | median time to reach the maximum plasma concentration ([1]; male, SD, po, 50 mg/kg): 0.25 h | clearance relative to normal hepatic blood flow (55 mL/min/kg in rats) ([1]; iv, 5 mg/kg): ~1.74 folds | inhibition at 12.5 µg/mL ([2]; Homo sapiens): 61% | TNF-α (pg/mL)/total protein (μg) [2]: 2.40 ± 0.25 (pg/mL)/total protein (μg) | inhibition at 12.5 µg/mL ([3]; Homo sapiens): 98% | IL-6 (pg/mL)/total protein (μg) [3]: 0.08 ± 0.107 (pg/mL)/total protein (μg) | hydrolysis of bergenin after 24 h [4]: gets hydrolyzed to its lactone ring opened product | stability at acidic pH of stomach ([5]; pH 1.2): stable | stability at intestinal pH ([5]; pH 6.8 and above): gets degraded | degradation half life ([5]; pH 7): 14.4 h | degradation half life ([5]; pH 8): 2.9 h | plasma half-life (t1/2) [6]: 1 to 2 h
